Test results taken from PMC8071358, “Targeting of the Essential acpP, ftsZ, and rne Genes in Carbapenem-Resistant Acinetobacter baumannii by Antisense PNA Precision Antibacterials” (Biomedicines, 2021).
Values after ≈ are worked out from the molar mass of the structure shown.

How the values were obtained:
Assay in all cases: Antibiotic MIC (CLSI microdilution or gradient strips)
Format in all cases: cell-based, Acinetobacter baumannii
CRAB strain AC7 = details: blood isolate, CLSI; for MIC: Acinetobacter baumannii, AC7, read-out: MIC, AC7
Description: (§1) All minimum inhibitory concentration (MIC) determinations for antibiotics were performed by the standard microdilution method in 96-well microplate (Thermo-Scientific, Roskilde, Denmark) or by gradient test strips (Liofilchem, Italy) according to the Clinical and Laboratory Standards Institute guidelines.

CRAB strain AC6 = details: blood isolate, CLSI; for MIC: Acinetobacter baumannii, AC6, read-out: MIC, AC6
Description: as §1

[1] = test system: A. baumannii ATCC 19606 type strain; details: for MIC: Acinetobacter baumannii, ATCC19606
Description: as §1, with “guidelines. Escherichia coli ATCC 25922 was used as control.” for “guidelines.”

CRAB strain AC5 = details: for MIC: Acinetobacter baumannii, AC5, urine isolate
Description: as §1, with “guidelines. Escherichia coli ATCC 25922 was used as control.” for “guidelines.”

CRAB strain AC3 = details: for MIC: Acinetobacter baumannii, AC3, sputum isolate
Description: as §1, with “guidelines. Escherichia coli ATCC 25922 was used as control.” for “guidelines.”

CRAB strain AC44 = details: for MIC: Acinetobacter baumannii, AC44, urine isolate
Description: as §1, with “guidelines. Escherichia coli ATCC 25922 was used as control.” for “guidelines.”

CRAB strain AC1 = details: for MIC: Acinetobacter baumannii, AC1, wound isolate
Description: as §1, with “guidelines. Escherichia coli ATCC 25922 was used as control.” for “guidelines.”

CRAB strain AC46 = details: sputum isolate, CLSI; for MIC: Acinetobacter baumannii, AC46, read-out: MIC, AC46
Description: as §1, with “guidelines. Escherichia coli ATCC 25922 was used as control.” for “guidelines.”

CRAB strain SSI1104 = details: for MIC: Acinetobacter baumannii, SSI1104
Description: as §1, with “guidelines. Escherichia coli ATCC 25922 was used as control.” for “guidelines.”

CRAB strain AC9 = details: CSF isolate, CLSI; for MIC: Acinetobacter baumannii, AC9, read-out: MIC, AC9
Description: as §1, with “guidelines. Escherichia coli ATCC 25922 was used as control.” for “guidelines.”

CRAB strain AC2 = details: wound isolate, CLSI; for MIC: Acinetobacter baumannii, AC2, read-out: MIC, AC2
Description: as §1, with “guidelines. Escherichia coli ATCC 25922 was used as control.” for “guidelines.”

CRAB strain AC4 = details: trachea isolate, CLSI; for MIC: Acinetobacter baumannii, AC4, read-out: MIC, AC4
Description: as §1, with “guidelines. Escherichia coli ATCC 25922 was used as control.” for “guidelines.”

CRAB strain AC8 = details: sputum isolate, CLSI; for MIC: Acinetobacter baumannii, AC8, read-out: MIC, AC8
Description: as §1, with “guidelines. Escherichia coli ATCC 25922 was used as control.” for “guidelines.”

Compound | MIC (CRAB strain AC7) | MIC (CRAB strain AC6) | MIC [1] | MIC (CRAB strain AC5) | MIC (CRAB strain AC3) | MIC (CRAB strain AC44) | MIC (CRAB strain AC1) | MIC (CRAB strain AC46) | MIC (CRAB strain SSI1104) | MIC (CRAB strain AC9) | MIC (CRAB strain AC2) | MIC (CRAB strain AC4) | MIC (CRAB strain AC8) | further results
C[C@@H](O)[C@H]1C(=O)N2C(C(=O)O)=C(S[C@@H]3CN[C@H](C(=O)N(C)C)C3)[C@H](C)[C@H]12 [Meropenem] | 16 µg/mL (≈ 41.7 µM) | 16 µg/mL (≈ 41.7 µM) | 1 µg/mL (≈ 2.61 µM) | 16 µg/mL (≈ 41.7 µM) | 4 µg/mL (≈ 10.4 µM) | 16 µg/mL (≈ 41.7 µM) | 4 µg/mL (≈ 10.4 µM) | 16 µg/mL (≈ 41.7 µM) | > 16 µg/mL | 16 µg/mL (≈ 41.7 µM) | 16 µg/mL (≈ 41.7 µM) | 16 µg/mL (≈ 41.7 µM) | 16 µg/mL (≈ 41.7 µM) | 
Colistin |  |  |  |  |  |  |  |  |  |  |  |  |  | MIC, AC7 (CRAB strain AC7): 1 µg/mL; MIC, AC6 (CRAB strain AC6): 1 µg/mL; MIC, ATCC 19606 [1]: 1 µg/mL; MIC, AC5 (CRAB strain AC5; urine isolate): 1 µg/mL; MIC, AC3 (CRAB strain AC3; sputum isolate): 1 µg/mL; MIC, AC44 (CRAB strain AC44; urine isolate): 0.5 µg/mL; MIC, AC1 (CRAB strain AC1; wound isolate): 1 µg/mL; MIC, AC46 (CRAB strain AC46): 1 µg/mL; MIC, SSI 1104 (CRAB strain SSI1104): 1 µg/mL; MIC, AC9 (CRAB strain AC9): 1 µg/mL; MIC, AC2 (CRAB strain AC2): 1 µg/mL; MIC, AC4 (CRAB strain AC4): 1 µg/mL; MIC, AC8 (CRAB strain AC8): 1 µg/mL
CN(C)c1cc(NC(=O)CNC(C)(C)C)c(O)c2c1C[C@H]1C[C@H]3[C@H](N(C)C)C(O)=C(C(N)=O)C(=O)[C@@]3(O)C(O)=C1C2=O [Tigecycline] | 1 µg/mL (≈ 1.71 µM) | 1 µg/mL (≈ 1.71 µM) | 0.5 µg/mL (≈ 0.854 µM) | 1 µg/mL (≈ 1.71 µM) | 0.5 µg/mL (≈ 0.854 µM) | 1 µg/mL (≈ 1.71 µM) | 0.5 µg/mL (≈ 0.854 µM) | 0.5 µg/mL (≈ 0.854 µM) | 1 µg/mL (≈ 1.71 µM) | 1 µg/mL (≈ 1.71 µM) | 1 µg/mL (≈ 1.71 µM) | 1 µg/mL (≈ 1.71 µM) | 1 µg/mL (≈ 1.71 µM) | 
